Experimental data reported in patent publication US6737383B1, “Herbicidal oxadiazolidines” (priority 1999, dated 2004).

Key:
bedstraw = assay: Test B pre/postemergence bedstraw; type: in vivo, Galium aparine
How it was run: (§1)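 Test chemicals in a non-phytotoxic solvent mixture with surfactant were sprayed preemergence onto planted seeds and postemergence onto plants 2 to 18 cm tall (1- to 4-leaf stage). After twelve to sixteen days in a greenhouse, injury was visually rated against untreated controls from 0 (no effect) to 10 (complete control).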

blackgrass = assay: Test B pre/postemergence blackgrass; type: in vivo, Alopecurus myosuroides
How it was run: as §1

surinam grass = assay: Test B pre/postemergence surinam grass; type: in vivo, Brachiaria decumbens
How it was run: as §1

cocklebur = assay: Test B pre/postemergence cocklebur; type: in vivo, Xanthium strumarium
How it was run: as §1

corn = assay: Test B pre/postemergence corn; type: in vivo, Zea mays
How it was run: as §1

crabgrass = assay: Test B pre/postemergence crabgrass; type: in vivo, Digitaria sanguinalis
How it was run: as §1

giant foxtail = assay: Test B pre/postemergence giant foxtail; type: in vivo, Setaria faberii
How it was run: as §1

morningglory = assay: Test B pre/postemergence morningglory; type: in vivo, Ipomoea hederacea
How it was run: as §1

pigweed = assay: Test B pre/postemergence pigweed; type: in vivo, Amaranthus retroflexus
How it was run: as §1

rape = assay: Test B pre/postemergence rape; type: in vivo, Brassica napus
How it was run: as §1

soybean = assay: Test B pre/postemergence soybean; type: in vivo, Glycine max; details: Preemergence
How it was run: as §1

sugar beet = assay: Test B pre/postemergence sugar beet; type: in vivo, Beta vulgaris; details: Preemergence
How it was run: as §1

velvetleaf = assay: Test B pre/postemergence velvetleaf; type: in vivo, Abutilon theophrasti; details: Preemergence
How it was run: as §1

wheat = assay: Test B pre/postemergence wheat; type: in vivo, Triticum aestivum; details: Preemergence
How it was run: as §1

wild oat = assay: Test B pre/postemergence wild oat; type: in vivo, Avena fatua; details: Preemergence
How it was run: as §1

purple nutsedge = assay: Test B pre/postemergence purple nutsedge; type: in vivo, Cyperus rotundus
How it was run: as §1

rice = assay: Test B flood test rice; type: in vivo, Oryza sativa
How it was run: (§2)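 Read-out is a visual response score from 0 (no effect) to 10 (complete control), assigned by comparison with untreated controls. Treatment was applied at the 2-leaf stage, and plants stayed in the greenhouse for twelve to sixteen days before scoring.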

smallflower flatsedge = assay: Test B flood test smallflower flatsedge; type: in vivo, Cyperus difformis
How it was run: as §2

duck salad = assay: Test B flood test duck salad; type: in vivo, Heteranthera limosa
How it was run: as §2

bamyardgrass = assay: Test B flood test barnyardgrass; type: in vivo, Echinochloa crus-galli
How it was run: as §2

[1] = Preemergence, Rate 31 g/ha, visual rating, scale 0 to 10 (0 no effect, 10 complete control)
[2] = Preemergence, Rate 62 g/ha, scale of 0 to 10 where 0 is no effect and 10 is complete control
[3] = Preemergence, Rate 250 g/ha, scale of 0 to 10 where 0 is no effect and 10 is complete control
[4] = Rate 31 g/ha, Postemergence, scale 0 to 10
[5] = Rate 62 g/ha, Postemergence, scale of 0 to 10 where 0 is no effect and 10 is complete control
[6] = Rate 125 g/ha, Postemergence, scale 0 to 10
[7] = Rate 125 g/ha, Preemergence, scale of 0 to 10 where 0 is no effect and 10 is complete control
[8] = Rate 31 g/ha, visual rating, scale 0 to 10 (0 no effect, 10 complete control)
[9] = Rate 62 g/ha, scale of 0 to 10 where 0 is no effect and 10 is complete control
[10] = Rate 250 g/ha, scale of 0 to 10 where 0 is no effect and 10 is complete control
[11] = Rate 125 g/ha, scale of 0 to 10 where 0 is no effect and 10 is complete control
[12] = Rate 62 g/ha, headed Pre-emergence (flood test species), scale 0 to 10 (0 no effect, 10 complete control)
[13] = Rate 125 g/ha, Pre-emergence, flood test species, scale 0 to 10 where 0 is no effect and 10 is complete control
[14] = Rate 250 g/ha, Pre-emergence, flood-test species, scale 0 to 10, 0 is no effect, 10 is complete control
[15] = Rate 500 g/ha, Pre-emergence, flood test species, scale 0 to 10 (0 no effect, 10 complete control)

C=C(Cn1c(=O)on(C(=O)N(c2ccc(F)cc2)C(C)C)c1=O)C[Si](C)(C)C [Compound 256]
6: Morningglory plant response rating (morningglory; [4])
4: Plant response rating (0 to 10; 0 is no effect, 10 is complete control), Redroot pigweed (pigweed; Rate 250 g/ha, Postemergence)
0: Bedstraw plant response rating (bedstraw; [1]) | Bedstraw plant response rating (bedstraw; [2]) | Bedstraw plant response rating (bedstraw; [3]) | Bedstraw plant response rating (bedstraw; [4]) | Bedstraw plant response rating (bedstraw; [5]) | Bedstraw plant response rating (bedstraw; [6]) | Bedstraw plant response rating (bedstraw; [7]) | Plant response rating (0 to 10; 0 is no effect, 10 is complete control), Bedstraw (bedstraw; Rate 250 g/ha, Postemergence) | Blackgrass plant response rating (blackgrass; [1]) | Blackgrass plant response rating (blackgrass; [2]) | Blackgrass plant response rating (blackgrass; [3]) | Blackgrass plant response rating (blackgrass; [4]) | Blackgrass plant response rating (blackgrass; [5]) | Blackgrass plant response rating (blackgrass; [6]) | Blackgrass plant response rating (blackgrass; [7]) | Plant response rating (0 to 10; 0 is no effect, 10 is complete control), Blackgrass (blackgrass; Rate 250 g/ha, Postemergence) | B. signalgrass plant response rating (surinam grass; [1]) | B. signalgrass plant response rating (surinam grass; [2]) | B. signalgrass plant response rating (surinam grass; [3]) | B. signalgrass plant response rating (surinam grass; [4]) | B. signalgrass plant response rating (surinam grass; [5]) | B. signalgrass plant response rating (surinam grass; Rate 125 g/ha, Postemergence, scale 0 (no effect) to 10 (complete control)) | B. signalgrass plant response rating (surinam grass; [7]) | Plant response rating (0 to 10; 0 is no effect, 10 is complete control), B. signalgrass (surinam grass; Rate 250 g/ha, Postemergence) | Cocklebur plant response rating (cocklebur; [1]) | Cocklebur plant response rating (cocklebur; [2]) | Cocklebur plant response rating (cocklebur; [3]) | Cocklebur plant response rating (cocklebur; [4]) | Cocklebur plant response rating (cocklebur; [5]) | Cocklebur plant response rating (cocklebur; [6]) | Cocklebur plant response rating (cocklebur; [7]) | Plant response rating (0 to 10; 0 is no effect, 10 is complete control), Cocklebur (cocklebur; Rate 250 g/ha, Postemergence) | Corn plant response rating (corn; [1]) | Corn plant response rating (corn; [2]) | Corn plant response rating (corn; [3]) | Corn plant response rating (corn; [4]) | Corn plant response rating (corn; [5]) | Corn plant response rating (corn; [6]) | Corn plant response rating (corn; [7]) | Plant response rating (0 to 10; 0 is no effect, 10 is complete control), Corn (corn; Rate 250 g/ha, Postemergence) | Crabgrass plant response rating (crabgrass; [1]) | Crabgrass plant response rating (crabgrass; [2]) | Crabgrass plant response rating (crabgrass; [4]) | Giant foxtail plant response rating (giant foxtail; [1]) | Giant foxtail plant response rating (giant foxtail; [2]) | Giant foxtail plant response rating (giant foxtail; [4]) | Plant response rating (0 to 10; 0 is no effect, 10 is complete control), Giant foxtail (giant foxtail; Rate 250 g/ha, Postemergence) | Morningglory plant response rating (morningglory; [1]) | Morningglory plant response rating (morningglory; [2]) | Morningglory plant response rating (morningglory; [3]) | Morningglory plant response rating (morningglory; [7]) | Redroot pigweed plant response rating (pigweed; [1]) | Redroot pigweed plant response rating (pigweed; [2]) | Redroot pigweed plant response rating (pigweed; [3]) | Redroot pigweed plant response rating (pigweed; [4]) | Redroot pigweed plant response rating (pigweed; [7]) | Rape plant response rating (rape; [1]) | Rape plant response rating (rape; [2]) | Rape plant response rating (rape; [3]) | Rape plant response rating (rape; [4]) | Rape plant response rating (rape; [7]) | Soybean plant response rating (soybean; [8]) | Soybean plant response rating (soybean; [9]) | Soybean plant response rating (soybean; [10]) | Soybean plant response rating (soybean; [11]) | Sugarbeets plant response rating (sugar beet; [8]) | Sugarbeets plant response rating (sugar beet; [9]) | Sugarbeets plant response rating (sugar beet; [10]) | Sugarbeets plant response rating (sugar beet; [11]) | Velvetleaf plant response rating (velvetleaf; [8]) | Velvetleaf plant response rating (velvetleaf; [9]) | Velvetleaf plant response rating (velvetleaf; [10]) | Velvetleaf plant response rating (velvetleaf; [11]) | Wheat plant response rating (wheat; [8]) | Wheat plant response rating (wheat; [9]) | Wheat plant response rating (wheat; [10]) | Wheat plant response rating (wheat; [11]) | Wild oats plant response rating (wild oat; [8]) | Wild oats plant response rating (wild oat; [9]) | Wild oats plant response rating (wild oat; [10]) | Wild oats plant response rating (wild oat; [11]) | Nutsedge plant response rating (purple nutsedge; [3]) | Nutsedge plant response rating (purple nutsedge; [4]) | Plant response rating (0 to 10; 0 is no effect, 10 is complete control), Nutsedge (purple nutsedge; Rate 250 g/ha, Postemergence) | Rice plant response rating (rice; [12]) | Rice plant response rating (rice; [13]) | Rice plant response rating (rice; [14]) | Rice plant response rating (rice; [15]) | S. Flatsedge plant response rating (smallflower flatsedge; [12]) | S. Flatsedge plant response rating (smallflower flatsedge; [13]) | S. Flatsedge plant response rating (smallflower flatsedge; [14]) | S. Flatsedge plant response rating (smallflower flatsedge; [15]) | Ducksalad plant response rating (duck salad; [12]) | Ducksalad plant response rating (duck salad; [13]) | Ducksalad plant response rating (duck salad; [14]) | Ducksalad plant response rating (duck salad; [15]) | Barnyardgrass plant response rating (bamyardgrass; [12]) | Barnyardgrass plant response rating (bamyardgrass; [13]) | Barnyardgrass plant response rating (bamyardgrass; [14]) | Barnyardgrass plant response rating (bamyardgrass; [15])
1: Plant response rating (0 to 10; 0 is no effect, 10 is complete control), Crabgrass (crabgrass; Rate 250 g/ha, Postemergence)
5: Giant foxtail plant response rating (giant foxtail; [7])
9: Giant foxtail plant response rating (giant foxtail; [3])
2: Crabgrass plant response rating (crabgrass; [3]) | Crabgrass plant response rating (crabgrass; [7]) | Plant response rating (0 to 10; 0 is no effect, 10 is complete control), Rape (rape; Rate 250 g/ha, Postemergence)
